Laboratory results from US9399656B2, “Compound, method for producing same, and use of same” (Microbial Chemistry Research Foundation, priority 2011, dated 2016).

Columns and labels:
Format in all cases: cell-based, human
[1] = tested on: PGE2 production in SW982 cell; assay: PGE2 production inhibitory action in bradykinin-stimulated SW982 cells (HTRF kit); details: bradykinin 1 nM, 30 min, test substance 2 to 10,000 ng/mL, FIG. 5
Procedure: The compound represented by the Structural Formula (A) was evaluated for a PGE2 production inhibitory action as follows.
A SW982 cell which is a human […] cell line (purchased from ATCC (American Type Culture Collection)) was suspended into DMEM/F12 (Dulbecco's Modified Eagle Medium: Nutrient Mixture F-12, manufactured by Thermo Fisher Scientific) containing 10% fetal bovine serum (manufactured by Nichirei Corporation), followed by inoculating into a 96-well culture plate at 1×10^4 cells/well and incubating overnight.
After the incubation overnight, the medium in the 96-well culture plate containing the SW982 cells was replaced with HEPES-HANKS buffer (manufactured by NISSUI PHARMACEUTICAL CO., LTD.). […] After incubating for 30 min, a culture supernatant was collected, followed by measuring a PGE2 concentration A in the culture supernatant using a kit based on a HTRF (Homogeneous Time-Resolved Fluorescence) method (62P2APEB, manufactured by Cisbio Bioassays).
As a negative control, a PGE2 concentration B was measured in the same manner as in the measurement of the PGE2 concentration in the system containing the test substance, except that neither the test substance nor bradykinin (inflammatory stimulating agent) was added. […]

[2] = tested on: PGI2 production in SW982 cell; assay: PGI2 production inhibitory action (6-keto-PGF1α enzyme immunoassay) in bradykinin-stimulated SW982 cells; details: bradykinin 1 nM, 30 min, test substance 14 to 10,000 ng/mL, FIG. 5
Procedure: The compound represented by the Structural Formula (A) was evaluated for a PGI2 production inhibitory action as follows. PGI2 is metabolized to 6-keto-PGF1α (6-keto-prostaglandin F1α) which is a stabilized metabolite. Therefore, a concentration of PGI2 produced can be determined by measuring a concentration of 6-keto-PGF1α.
A SW982 cell which is human […] cell line (purchased from ATCC) was suspended into DMEM/F12 (manufactured by Thermo Fisher Scientific) containing 10% fetal bovine serum (manufactured by Biowest), followed by inoculating into a 96-well culture plate at 1×10^4 cells/well and incubating overnight. […]
As a negative control, a 6-keto-PGF1α concentration E was measured in the same manner as in the measurement of the 6-keto-PGF1α concentration in the system containing the test substance, except that neither the test substance nor bradykinin (inflammatory stimulating agent) was added.
As a positive control, a 6-keto-PGF1α concentration F was measured in the same manner as in the measurement of the 6-keto-PGF1α concentration in the system containing the test substance, except that the test substance was not added.
Based on the measurement result of 6-keto-PGF1α concentration in the each well, a 6-keto-PGF1α production rate was calculated according to the following Expression (2): 6-keto-PGF1α production rate (%)=(D−E)/(F−E)×100 Expression (2) […]

SW982 cell = assay: Cytotoxicity test (Cell Counting Kit-8, cell proliferation rate); details: SW982 cells, 48 hours
Procedure: The compound represented by the Structural Formula (A) was evaluated for cytotoxicity as follows.
A SW982 cell (purchased from ATCC) at 2×10^3 cells/well was prepared with DMEM/F12 medium (manufactured by Thermo Fisher Scientific) containing 10% fetal bovine serum (manufactured by Nichirei Corporation), followed by inoculating into a 96-well culture plate so that each well contained 0.1 mL. At the same time, the test substance produced in Production Example 1 (the compound represented by the Structural Formula (A)) was added to each well at a concentration described in the following Table 1, followed by incubating for 48 hours under a condition of 37° C. and 5% CO2. After the incubation for 48 hours, 10 μL of a cytometric kit (CELL COUNTING KIT-8, manufactured by DOJINDO LABORATORIES) was added to the each well, followed by incubating for 2 hours. Then, an absorbance at 450 nm G was measured.
The cytometric kit allows living cells to develop a color. Accordingly, the higher absorbance at 450 nm is, the larger the number of living cells is, that is, cell proliferation is not affected. Therefore, based on the measurement result of absorbance in the each well, a cell proliferation rate was calculated according to the following Expression (3) to thereby evaluate an influence upon the cell proliferation: Cell proliferation rate (%)=G/H×100 Expression (3)
G denotes an absorbance at 450 nm in the system containing the test substance, and
H denotes an absorbance at 450 nm in the system containing no test substance (i.e., at a concentration of 0 nM in the following Table 1).

Question: `COC1=C(C)C(=O)c2ccc(OC3OC(C)C(O)C(O)C3O)c(NNC(C)=O)c2C1=O` (stereo not shown) [Structural Formula (A)] was tested. Which PGE2 production rate [1] did it give?
Answer: Its PGE2 production rate is “decreased”.

Question: What about the 6-keto-PGF1α production rate [2] of the same molecule?
Answer: The 6-keto-PGF1α production rate was “decreased”.

Question: What about the “Cell proliferation rate (%)” value (SW982 cell; concentration 111 nM) of the same molecule?
Answer: The value was 100%.

Question: And the “Cell proliferation rate (%)” value (SW982 cell; concentration 333 nM)?
Answer: Its value is 103%.

Question: What about the “Cell proliferation rate (%)” value (SW982 cell; concentration 10,000 nM) of the same molecule?
Answer: The value was 111%.

Question: And the “Cell proliferation rate (%)” value (SW982 cell; concentration 30,000 nM)?
Answer: Its value is 95%.

Question: And the “Effect on cell proliferation of the SW982 cell” value (SW982 cell; up to 30,000 nM (Table 1))?
Answer: Its value is “not to affect cell proliferation”.
